In patent US6277867A, “Pesticide compounds, compositions and process for the preparation thereof” (priority 1995, dated 2001):

What was measured:
mammals = settings: cited from earlier work
[1] = test system: house fly (Musca domestica); test: Effect on fecundity, on house fly; assay type: in vivo; settings: 500 ppm in granulated sugar, 48 hours feeding; eggs of next 10 days
Protocol: Investigation of the Effect on Fecundity, on House Fly (Musca domestica)
Groups consisting of freshly hatched 50 male and 50 female flies were fed during 48 hours with granulated sugar comprising 500 ppm of material No. 441 and 484 of the present invention respectively, and the eggs layed on the next 10 days were raised. The fecundity-hindering effect was expressed as the quotient of the emerged flies in the treated and untreated groups. The experiments were performed in 4 replica.

flies = test: Comparative investigations with known reference synergists on flies treated with carbofuran; assay type: in vivo; settings: flies treated with carbofuran and 1000 ng of the synergist
Source text: These SR50 ratios were compared to those of the new compounds prepared by us.

[2] = test system: house fly (Musca domestica); test: Effect of the active ingredient:synergist ratio on the synergistic activity (flies)
Protocol: Effect of the Active Ingredient:Synergist Ratio on the Synergistic Activity
Treatment was performed as described in Example 1. using Hamilton MicroLab P microdispenser. In two parallel experiments 10 female -3 day old flies were treated on the ventral side of their thorax with 0.2 μl test solution. Beside 1000-400-200-80 ng/fly fixed doses of the synergist they were treated with constant 20 ng/fly CARBOFURAN®. Selection and counting of the flies were performed under the action of CO2. After treatment the flies were kept in plastic cups covered with tulle. After 24 hours mortality % was recorded. Depending on the results the experiments were performed in 2-4 replica.

[3] = test system: house fly (Musca domestica); settings: in vivo, topical_or_ocular, 1440 min
Protocol: Investigation of Synergistic Activity on House Fly (Musca domestica) Following Topical Application
In two parallel experiments 10 female. 2-4 day old house flies were treated on the vental side of their thorax with 0.2 μl of the test solution, with the help of Hamilton MicroLab P microdispenser. Beside fixed synergist dose of 1000 ng/fly the animals were treated with carbofuran at a dose of 20 ng/fly. For solvent cellosolve was used. Selection and counting of the flies were performed under the action of CO2. After treatment the flies were kept in plastic cups covered with tulle. Mortality after 24 hours was expressed in %.

[4] = test system: cotton bollworm (Helicoverpa armigera); test: Synergistic activity on cotton bollworm following topical application; settings: in vivo
Protocol: Investigation of Synergistic Activity on Cotton Bollworm (Helicoverpa armigera) Following Topical Application
Treatment was performed similarity as described in Example 1. but L2 stadium grubs of cotton bollworms (Helicoverpa armigera) were treated as test animals. From the 24 hour dose--mortality data the LD50 (ng/grub) values were determined using probit analysis. None of the synergists acted at the applied 1000 ng/grub dose. Synergist ratio was calculated as the quotient of the LD50 values of carbofuran administered alone, and with the synergist. The experiments were performed in 2-4 replica.

Q: Which tumor provoking effect (mammals) does the source give for CCCCOCCOCCOCc1cc2c(cc1CCC)OCO2 [PBO] here?
A: suspected tumor provoking effect

Q: For CC#CCOCc1ccc2c(c1)OCO2 [Compound 441, 5-[(But-2-ynyloxy)-methyl]-1,3-benzodioxole], which “Hindering effect on fecundity” value [1] is on record?
A: 87%

Q: And the “Synergist ratio SR50” value (flies)?
A: 25.70

Q: What about the “24 hour mortality (%)” value ([2]; carbofuran 20 ng/fly + synergist 80 ng/fly) of the same compound?
A: 62%

Q: And the “24 hour mortality (%)” value ([2]; carbofuran 20 ng/fly + synergist 200 ng/fly)?
A: 67%

Q: And the “24 hour mortality (%)” value ([2]; carbofuran 20 ng/fly + synergist 400 ng/fly)?
A: 90%

Q: What about the “24 hour mortality (%)” value ([2]; house fly, in vivo, topical_or_ocular) of the same compound?
A: 95%

Q: What about the mortality % [3] of the same compound?
A: 97%

Q: And the Synergist ratio [4]?
A: > 5
